Entries after “also recorded” stand apart in the source; their conditions may differ.
Assays:
[1] = tested on: OE21
Procedure: (§1) Morphological features of cells treated with 5-fluorouracil (5-FU)/cisplatin, without and with 3-MA, LY294002, Bafilomycin, Lithium chloride, rapamycin or HA14-I were examined by light microscopy. Morphologies of treated cells were examined 24 and 48 hours post treatment, treatment times are referred to in figure legends. Aliquots of vehicle control and drug treated cells were cytospun onto glass slides and stained with Rapi-Diff (Braidwood laboratories, UK). The extent of apoptotic and non-apoptotic cell death was determined by counting the cells in at least three fields of view per slide, with an average of ˜100 cells per field. Apoptotic cell death is characterized by the presence of two or more of the following morphological features: cell shrinkage, chromatin condensation, DNA degradation and fragmentation into ‘apoptotic bodies’, within an intact plasma membrane. Autophagic cell death was identified by clear elevation of cytoplasmic vesicles, loss of cytoplasmic material, pyknosis of the nuclear material and an intact nuclear membrane. Cytospin images are representative of at least three independent experiments.

[2] = tested on: KYSE450; assay: Evaluation of cell death morphology by light microscopy; format: cell-based, human
Procedure: as §1

[3] = tested on: OE19; assay: as above; format: cell-based, human; conditions: 5-FU (50 μM) or cisplatin (40 μM), 48 hours
Procedure: as §1

[4] = tested on: OE33; assay: as above; format: cell-based, human; conditions: 5-FU (50 μM) or cisplatin (40 μM), 48 hours
Procedure: as §1

[5] = tested on: active caspase-3 in KYSE450 cells; assay: Active caspase-3 by flow cytometry; format: cell-based, human; conditions: 48 hours after treatment, range of concentrations
Procedure: (§2) To examine control and 5-Fluorouracil treated cells for evidence of caspase activity cells were processed by trypsinization, 48 hours after treatment. […] This was detected with an anti rabbit FITC conjugated secondary antibody, and samples were analyzed by FACScan at 530 nm (FL-1). Percentages indicate the proportion of cells with active caspase-3, detected as an increase in the number of FITC (FL-1) labelled cells.

[6] = tested on: active caspase-3 in OE19 cells; assay: Active caspase-3 by flow cytometry; format: cell-based, human; conditions: 48 hours after treatment
Procedure: as §2

[7] = tested on: active caspase-3 in OE21 cells; assay: Active caspase-3 by flow cytometry; format: cell-based, human
Procedure: as §2

[8] = tested on: active caspase-3 in OE33 cells; assay: Active caspase-3 by flow cytometry; format: cell-based, human; conditions: 48 hours after treatment
Procedure: as §2

[9] = tested on: LC3 in KYSE450 cells; assay: LC3 / GFP-LC3 processing and distribution (Western blot, fluorescence microscopy); format: cell-based, human
Procedure: (§3) Total cellular protein extracts were prepared by scraping the cells into modified RIPA buffer (50 mM Tris HCl (pH 7.4), 150 mM NaCl, 0.25% Sodium deoxycholate, 1% Igepal, protease inhibitors 1 mM EDTA, 1× Pefabloc, 1× protease inhibitor cocktail, 1 mM Na3VO4, 1 mM NaF). All protein samples were separated by SDS-PAGE (10/12%) and electrophoretically transferred onto nitrocellulose membrane. All primary antibodies were incubated overnight at 4° C.: anti-phospho mTOR (Ser 2448) and anti-p70^S6K (Thr 389) (Cell Signaling Technologies, UK), anti-Beclin-1 (BD Biosciences, UK) and anti-LC3 (Medical & Biological Laboratories, Japan). The membranes were incubated with the relevant horseradish peroxidase conjugated secondary antibodies (DakoCytomation, Dublin) and detected by chemiluminescence (ECL Amersham, UK).
(§4) To visualize and quantify the formation of autophagic vesicles, the green fluorescent protein (GFP)-LC3 (pEGFP-LC3) expression vector, kindly supplied by Dr. T. Yoshimori (National Institute of Genetics, Japan) was used. Cells were transiently transfected with the Amaxa electroporation system according to the supplier's protocol. Twenty-four hours post transfection, cells were treated with 5-FU and/or Cisplatin, fixed in 4% paraformaldehyde in PBS and transferred onto slides using a non-fluorescent fixative for analysis by fluorescence microscopy. Alternatively, Western Blot analysis was used to assess the expression and processing of LC3. […] The membrane sequestered, lipid-conjugated form of LC3-II remains with the autophagosome membrane after the vesicle has formed, and levels of both isoform are detected by Western Blot. Transfection efficiency was consistent for a given cell line, OE33 and KYSE450 cell lines (˜60-70%) compared to OE19 and OE21 cell lines (˜30%).

[10] = tested on: LC3 in OE19 cells; assay: as above; format: cell-based, human
Procedure: as §3, §4

[11] = tested on: LC3 in OE21 cells; assay: as above; format: cell-based, human
Procedure: as §3, §4

[12] = tested on: LC3 in OE33 cells; assay: as above; format: cell-based, human
Procedure: as §3, §4

[13] = tested on: OE19; assay: Electron microscopy; format: cell-based, human; conditions: 5-FU (25 μM), 48 hours
Procedure: (§5) Cells were seeded on semi-porous membranes and incubated in 5-Fluoruracil (5-FU) for 48 hours. Cells were then fixed in a […] phosphate buffer (pH 7.4), containing 2.0% glutaraldehyde, at room temperature (RT) for 40 minutes. Cells were post-fixed in Osmium tetroxide (OsO4) at RT for 60 minutes, dehydrated in ascending grades of ethanol solutions (50%, 70%, 95%, 100% and 100% dry), prior to embedding in Araldite resin. Samples were subjected to a graded infiltration process with araldite (epoxy resin) before being set and sectioned. Representative areas were chosen for ultra-thin sectioning and samples were examined by electron microscopy.

[14] = tested on: OE21; assay: Electron microscopy; format: cell-based, human; conditions: 5-FU (25 μM), 48 hours
Procedure: as §5

[15] = tested on: LLC-Luc cells; assay: FITC conjugated LC3 staining of LLC-Luc cells in vitro; format: cell-based; conditions: 5-FU in vitro, 24 and 48 hours
Text: FITC conjugated LC3 (a known marker of autophagy), forms a green punctate staining pattern in the cytoplasm when it accumulates in forming autophagosomes.

[16] = tested on: CT26 (Colorectal carcinoma cells); assay: CT26 colorectal carcinoma model, intratumoural Rapamycin / 5-FU; format: in vivo, mice; conditions: intratumoural thrice weekly; Rapamycin 0.6-2 mg/kg; 5-FU 20 mg/kg
Procedure: For routine tumour induction, 1×10^6 CT26 (Colorectal carcinoma cells) suspended in 200 μl of serum free DMEM are injected subcutaneously into the right flank of adult female Balb/c mice, after anaesthesia. Mice are randomly divided into experimental groups. Mice are treated at a tumour volume of approximately 60 mm^3 in volume (5-7 mm major diameter). […] Following drug treatment, tumours are monitored by alternate day measurements in two dimensions, using Verniers Calipers. Tumor volumes are calculated according to the formula V=ab^2/6, where ‘a’ is the longest diameter of the tumor and ‘b’ is the longest diameter perpendicular to diameter ‘a’. Animals are culled when tumour volumes exceed ˜500 mm^3 (no greater than 15 mm in diameter). […] Treatment of these animals is maintained until day 58, following which all treatments cease.

[17] = 5-FU (50 μM) or cisplatin (40 μM), 48 hours
[18] = 5-FU or cisplatin (images not shown)

Question: For `O=c1[nH]cc(F)c(=O)[nH]1` [5-FU, 5-fluorouracil], which cell death morphology [1, 17] is on record?
Answer: Its cell death morphology is “predominantly apoptotic cell death morphology”.

Question: What about the “autophagic cells as a minor population” value ([1]; 5-FU treated OE21 cells (FIG. 1c)) of the same compound?
Answer: The value was 7%.

Question: What about the cell death morphology [2, 17] of the same compound?
Answer: Its cell death morphology is “predominantly non-apoptotic morphology”.

Question: What about the morphology ([2]; HA14-1 (5 μM) and/or 5-FU (50 μM), 24 hours) of the same compound?
Answer: The morphology was “causes autophagic phenotype”.

Question: What about the cell death morphology [3] of the same compound?
Answer: Its cell death morphology is “predominantly non-apoptotic morphology”.

Question: What about the cell death morphology [4] of the same compound?
Answer: Its cell death morphology is “predominantly apoptotic cell death morphology”.

Question: And the “active caspase-3” value [5]?
Answer: The value was “do not show caspase-3 activity; also recorded: fail to show any active caspase-3”.

Question: What about the “active caspase-3” value [6] of the same compound?
Answer: The value was “do not show caspase-3 activity”.

Question: And the “proportion of cells with active caspase-3” value ([7]; 5-FU (25 μM/50 μM), 48 hours)?
Answer: Its value is 44%.

Question: What about the “active caspase-3” value ([7]; 48 hours after treatment) of the same compound?
Answer: Its value is “displayed active caspase-3”.

Question: What about the “active caspase-3” value [8] of the same compound?
Answer: Its value is “displayed active caspase-3”.

Question: What about the “GFP-LC3 distribution (fluorescence microscopy)” value (from here on “GFP-LC3 distribution”) ([9]; 5-FU or cisplatin (data not shown)) of the same compound?
Answer: Its value is “Redistribution of GFP-LC3 from a diffuse cytosolic to a punctate autophagosome-associated pattern”.

Question: What about the “LC3II levels (Western blot, GFP-LC3)” value ([9]; 5-FU, 24 hours) of the same compound?
Answer: Its value is “significant increase in LC3II levels”.

Question: What about the “GFP-LC3 distribution” value ([10]; 5-FU (25 & 50 μM) or cisplatin (10 & 25 μM)) of the same compound?
Answer: Its value is “Redistribution of GFP-LC3 from a diffuse cytosolic to a punctate autophagosome-associated pattern; also recorded: bright punctate patterns of GFP-LC3 fluorescence”.

Question: What about the “LC3II levels (Western blot, GFP-LC3)” value ([10]; 5-FU, 24 hours) of the same compound?
Answer: The value was “significant increase in LC3II levels”.

Question: And the “GFP-LC3 distribution” value [11, 18]?
Answer: Its value is “Diffuse cytoplasmic localization of GFP-LC3”.

Question: And the “induction of autophagosome-associated LC3II band (Western blot)” value ([11]; 24 and 48 hours)?
Answer: The value was “no induction of a lower autophagosome-associated LC3II-band”.

Question: What about the “GFP-LC3 distribution” value [12, 18] of the same compound?
Answer: The value was “Diffuse cytoplasmic localization of GFP-LC3”.

Question: And the “induction of autophagosome-associated LC3II band (Western blot)” value ([12]; 24 and 48 hours)?
Answer: The value was “no induction of a lower autophagosome-associated LC3II-band”.

Question: And the “ultra structural features (electron microscopy)” value [13]?
Answer: Its value is “numerous cytoplasmic vacuoles are evident”.

Question: And the “ultra structural features (electron microscopy)” value [14]?
Answer: The value was “morphological changes consistent with classical apoptotic cell death”.

Question: And the “autophagy (FITC conjugated LC3 punctate staining)” value [15]?
Answer: The value was “the extent of autophagy is greatly enhanced”.

Question: And the “survival: day beyond which no animal of the group is alive / final animal euthanized” value [16]?
Answer: The value was 33 days.
